Assay results from paper PMC9953095, “Design, Synthesis and Biological Evaluation of Quinazolinamine Derivatives as Breast Cancer Resistance Protein and P-Glycoprotein Inhibitors with Improved Metabolic Stability” (Biomolecules, 2023).

Legend:
[1] = test system: BCRP protein in H460/MX20 cells; assay: Western blot of BCRP expression in H460/MX20 cells; type: cell-based, human
Protocol: (§1) Cells in T25 flask were washed with ice-cold PBS. Lysis buffer (100 µL) was added into T25 flask. Using a cell scraper, scrape adherent cells were scraped off the flask and the cell suspension was transferred into a microcentrifuge tube (1.5 mL). Cells were agitated for 20 min at 4 °C and cell lysate was centrifuged mixture at 4 °C for 20 min at 12,000 rpm. The supernatant (lysate) was used for the gel electrophoresis. Equal amounts of total cell lysates (20 µg protein) were resolved by sodium dodecyl sulfate polyacrylamide gel electrophoresis (SDS-PAGE) and electrophoretically transferred onto polyvinylidene fluoride (PVDF) membranes. After incubation in a blocking solution (5% milk) for 2 h at room temperature, the membranes were incubated overnight with primary monoclonal antibodies against GAPDH (GA1R) (Invitrogen, Carlsbad, CA, USA) at 1:1000 dilution of BCRP protein (BXP 21) (Sigma-Aldrich, Inc., St. Louis, MO, USA) (1:1000) or P-gp (F4) (Sigma-Aldrich, Inc., St. Louis, MO, USA) at 4 °C, and were further incubated with horseradish […] (HRP)-conjugated secondary antibody (Thermo Fisher Scientific Inc., Waltham, MA, USA) at 1:1000 dilution for 2 h at room temperature. The protein antibody complex was detected using an enhanced chemiluminescence detection system. The grayscale ratio was analyzed by ImageJ and normalized by the grayscale of the ABC protein divided by that of GAPDH.

[2] = test system: P-gp-mediated multidrug-resistant cell line KB-C2; assay: MTT reversal assay with paclitaxel, KB-C2 cells; type: cell-based, human; conditions: Figure 5A
Protocol: The human lung cancer cell line H460, and its MX-selected derivative BCRP-overexpressing cell line, H460/MX20, were used in this study. The KB-C2 cell line was selected by colchicine (Alfa Aesar, Haverhill, MA, USA) (2 μg/mL) with human cervical carcinoma cell line KB-3-1.
Cytotoxicity tests and reversal experiments were performed using the 3-(4,5-dimethylthiazol-2-yl)-2,5-diphenyltetrazolium bromide (MTT) colorimetric assay. Cells were seeded evenly into 96-well plates. […] To determine the MDR reversal efficacy of the quinazolinamine derivatives, an anticancer drug (mitoxantrone, colchicine, paclitaxel or cisplatin) was added into the designated wells after 2 h pre-incubation with a quinazolinamine derivative or a positive control inhibitor at non-toxic concentrations. After 72 h of drug incubation, the MTT reagent (4 mg/mL) was added into the wells, and then the plates were incubated for an additional 4 h. Subsequently, the supernatant was discarded and 100 µL of dimethyl sulfoxide (DMSO) was added to dissolve the formazan crystals. Cell viability was determined by measuring the absorbance by using an accuSkan™ GO UV/Vis Microplate Spectrophotometer (Fisher Sci., Fair Lawn, NJ, USA) at a wavelength of 570 nm.

[3] = target: T1, BCRP ATPase (Homo sapiens, UniProt Q9UNQ0); assay: Vanadate-sensitive BCRP ATPase assay; type: biochemical; conditions: membrane vesicles of High Five insect cells; Figure 10A,B
T1 construct: host or cells: High Five insect cells (membrane vesicles)
T1 sequence (Q9UNQ0 1-655): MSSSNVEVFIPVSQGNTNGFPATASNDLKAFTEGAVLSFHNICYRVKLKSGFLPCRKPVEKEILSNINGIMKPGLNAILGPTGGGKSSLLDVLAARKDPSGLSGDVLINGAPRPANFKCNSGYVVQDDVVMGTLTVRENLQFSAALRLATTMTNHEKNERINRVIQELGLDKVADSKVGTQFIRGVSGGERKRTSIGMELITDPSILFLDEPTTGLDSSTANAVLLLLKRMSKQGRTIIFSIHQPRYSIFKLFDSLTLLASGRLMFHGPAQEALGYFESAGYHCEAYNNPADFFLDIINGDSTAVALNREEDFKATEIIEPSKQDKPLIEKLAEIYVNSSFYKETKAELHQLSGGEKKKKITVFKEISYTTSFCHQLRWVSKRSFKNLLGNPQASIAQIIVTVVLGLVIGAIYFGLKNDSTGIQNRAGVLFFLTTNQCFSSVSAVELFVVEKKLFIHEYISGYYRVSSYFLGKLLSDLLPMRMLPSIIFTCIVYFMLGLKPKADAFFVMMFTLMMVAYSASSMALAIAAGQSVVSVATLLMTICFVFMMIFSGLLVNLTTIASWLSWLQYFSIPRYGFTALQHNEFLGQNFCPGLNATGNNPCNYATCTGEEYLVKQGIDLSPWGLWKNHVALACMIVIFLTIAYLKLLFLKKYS
Protocol: The vanadate (Vi)-sensitive ATPase activity of BCRP and P-gp in the membrane vesicles of High Five insect cells was measured as described previously. The results were presented as vanadate-sensitive ATPase activities by determining the difference in inorganic phosphate liberation measured in the presence and absence of sodium orthovanadate.

[4] = test system: BCRP localization in H460/MX20 cells; assay: Immunofluorescence assay of BCRP localization in H460/MX20 cells; type: cell-based, human; conditions: 5 μM for 24, 48, and 72 h, Figure 8A,C
Protocol: For immunofluorescence analysis, parental and drug-resistant cells were seeded in 24-well plates at 10,000–20,000 cells/well and incubated for 24 h. The cells were incubated with or without cyclopropyl quinazolinamine 22 or azide quinazolinamine 33 for 24 h, 48 h, and 72 h. Thereafter, cells were washed with PBS and fixed with 4% paraformaldehyde for 10 min at room temperature and then rinsed with PBS twice, followed by permeabilization with 1% Triton X-100 for 10 min at 4 °C. The cells were again washed twice with PBS, and then blocked with 6% BSA for 1 h at 37 °C. Fixed cells were incubated with monoclonal antibody against the BCRP protein (BXP 21) (Sigma-Aldrich, Inc., St. Louis, MO) (1:1000) or P-gp (F4) (Sigma-Aldrich, Inc., St. Louis, MO, USA) overnight at 4 °C, followed by two washes with PBS. The cells were then further incubated with Alexa flour 488 goat anti-mouse IgG (1:1000) (Abcam plc.) for 2 h at 37 °C. After the cells were washed twice with PBS, 4′,6-diamidino-2-phenylindole (DAPI) (2 µg/mL) was used for nuclear counterstaining. The immunofluorescence images were generated using a Nikon TE-2000S fluorescence microscope (Nikon Instruments Inc, Melville, NY, USA).

[5] = test system: P-gp protein in KB-C2 cells; assay: Western blot of P-gp expression in KB-C2 cells; type: cell-based, human
Protocol: as §1

c1ccc2c(Nc3ccc(C4CC4)cc3)nc(-c3ccncc3)nc2c1 [Compound 22, N-(4-Cyclopropylphenyl)-2-(pyridin-4-yl)quinazolin-4-amine]
BCRP protein expression level in the cytoplasm ([1]; H460/MX20 cytoplasm fraction, Figure 9B): increased
expression level of BCRP protein on the membrane ([1]; H460/MX20 membrane fraction, Figure 9A): decreased
expression level of BCRP protein ([1]; H460/MX20 total cell lysate, Figure 7): did not change the expression level
sensitization to paclitaxel [2]: could sensitize KB-C2 cells
effect on Vi-sensitive BCRP ATPase activity (ATP hydrolysis) [3]: significantly stimulated
BCRP fluorescence on the membranes / intracellular localization of BCRP [4]: decreased gradually
cytoplasmic P-gp expression level ([5]; KB-C2 cytoplasm fraction, Figure 9D): slightly increased
expression level of the P-gp protein on the membrane ([5]; KB-C2 membrane fraction, Figure 9C): slightly decreased
P-gp protein expression ([5]; KB-C2 total cell lysate, Figure 7B): nor did it change the P-gp protein expression
